Entries after “also recorded” stand apart in the source; their conditions may differ. Like-named read-outs stand apart in the source and are kept apart here.
Experiments:
[1] = tested on: SARS-CoV-2 Wk-521 strain; experiment: SARS-CoV-2 infection assay, viral RNA in culture supernatant (VeroE6/TMPRSS2 cells); format: cell-based; settings: for anti-SARS-CoV-2 activity: cell-based assay, VeroE6/TMPRSS2; for SARS-CoV-2 propagation in cultured cells: statement in words; for viral RNA in the culture supernatant: natural oxysterols up to 30 μM, semi-synthetic up to 15 μM; for production of viral RNA with signaling pathway inhibitors: 10 μM
[2] = tested on: VeroE6/TMPRSS2 cells
[3] = tested on: SARS-CoV-2; experiment: Time of addition assay, SARS-CoV-2 viral RNA; format: cell-based; settings: 15 μM RDV, 15 μM CLQ, 10 μM Oxy210, 10 μM Oxy133
[4] = tested on: SARS-CoV-2; experiment: SARS-CoV-2-induced cytopathic effect (CPE) in VeroE6/TMPRSS2 cells; format: cell-based; settings: for virus-induced CPE: 48 h post-inoculation, 10 μM RDV, 30 μM cholesterol, 30 μM 7-KC, 10 μM Oxy133, 10 μM Oxy210, MOI 0.001; for SARS-CoV-2-induced cytopathic effect (CPE): remdesivir 20 uM, 7-ketocholesterol 40 uM, 27-hydroxycholesterol 20 uM
[5] = tested on: SARS-CoV-2; format: cell-based
[6] = tested on: SARS-CoV-2 (isolate USA WA1/2020); experiment: SARS-CoV-2 infection of Calu-3 cells (dsRNA+ cells, automated microscopy); format: cell-based; settings: Severe acute respiratory syndrome coronavirus 2, Calu-3, 48 h
Description: FIGS. 12A-12C depict dose-response curves for Oxy232. (FIG. 12A) Secreted viral RNA in the VeroE6 culture supernatant 24 h post-inoculation was quantified by real-time RT-PCR. Cell viability of Oxy232 treated cells evaluated with an MTT assay. (FIG. 12B) Secreted viral RNA of 3 SARS-CoV-2 strains in the VeroE6 culture supernatant 24 h post-inoculation was quantified by real-time RT-PCR. (FIG. 12C) Calu-3 (ATCC) cells were pretreated with Oxy232 for 2 hours prior to continuous infection with SARS-CoV-2 (isolate USA WA1/2020) at MOI=0.5. 48 h post-infection, cells were fixed, immune-strained, and imaged by automated microscopy for infection (dsRNA+ cells/total cell number) and cell number.
According to a previously published report (Ohashi et al., Identification of Anti-Severe Acute Respiratory Syndrome-Related Coronavirus 2 (SARS-CoV-2) Oxysterol Derivatives In Vitro. Int J Mol Sci. 2021; 22(6):3163. PMCID: PMC8003796) inventors have tested a collection of naturally occurring and semisynthetic oxysterol derivatives in a SARS-CoV-2 cell culture infection assay in VeroE6/TMPRSS2 cells. […] See, Ohashi et al., Int J Mol Sci. 2021; 22(6):3163 and Dittmar et al. Drug repurposing screens reveal cell-type-specific entry pathways and FDA-approved drugs active against SARS-Cov-2. Cell Rep. […] PMCID: PMC7985926. […] Without wishing to be bound by a theory, biological activities of oxysterols, including measures of cell viability, can heavily depend on in vitro assay conditions, such as the fetal bovine serum concentration or the duration of pretreatment with the compounds, among other factors, that may not translate to the in vivo safety of the compounds.

[7] = in vitro; settings: African green monkey
[8] = in vitro; settings: human
[9] = Severe acute respiratory syndrome coronavirus 2, VeroE6/TMPRSS2, 24 h, SARS-CoV-2 viral RNA in culture supernatant, 24 h post-inoculation, VeroE6/TMPRSS2 cells, read-out: IC90
[10] = Severe acute respiratory syndrome coronavirus 2, SARS-CoV-2 viral RNA in culture supernatant, 24 h post-inoculation, VeroE6/TMPRSS2 cells, read-out: IC50
[11] = MTT assay, 24 h, VeroE6/TMPRSS2 cells
[12] = SARS-CoV-2 viral RNA in culture supernatant, 24 h post-inoculation, VeroE6/TMPRSS2 cells, read-out: IC50
[13] = SARS-CoV-2 viral RNA in culture supernatant, 24 h post-inoculation, VeroE6/TMPRSS2 cells, read-out: IC90

Compound | IC90 [1, 9] [µM] | IC50 [1, 10] [µM] | anti-SARS-CoV-2 activity [1] | SARS-CoV-2 propagation in cultured cells [1] | CC50 [2, 11] [µM] | viral RNA in the culture supernatant ([1]; 24 h post-inoculation) | further results
CC(C)CC[C@@H](O)[C@@H](C)[C@H]1CC[C@H]2[C@@H]3CC=C4C[C@@H](O)CC[C@]4(C)[C@H]3CC[C@]12C [22(R)-OHC, 22(R)-hydroxycholesterol, reference compound] | > 30 | 13.2 | modest anti-SARS-CoV-2 activities | substantially inhibited SARS-CoV-2 propagation | > 30 |  | 
CC(C)CC[C@H](O)[C@@H](C)[C@H]1CC[C@H]2[C@@H]3CC=C4C[C@@H](O)CC[C@]4(C)[C@H]3CC[C@]12C [22(S)-OHC, 22(S)-hydroxycholesterol, reference compound] | > 30 | > 30 |  |  | > 30 | did not show apparent reductions in viral RNA | 
CC(C)[C@@H](O)CC[C@@H](C)[C@H]1CC[C@H]2[C@@H]3CC=C4C[C@@H](O)CC[C@]4(C)[C@H]3CC[C@]12C [24(S)-OHC, 24(S)-hydroxycholesterol, reference compound] | > 30 | 1.3 | modest anti-SARS-CoV-2 activities | substantially inhibited SARS-CoV-2 propagation | > 30 |  | 
CCN(CC)CCCC(C)Nc1ccnc2cc(Cl)ccc12 (stereo not shown) [CLQ, chloroquine, reference compound] |  |  |  |  |  |  | viral RNA, compound present at entry ([3]; 1 h inoculation plus 2 h): showed the most inhibitory effect
CC(C)CCC[C@@H](C)[C@H]1CC[C@H]2[C@@H]3CC=C4C[C@@H](O)CC[C@]4(C)[C@H]3CC[C@]12C [Cholesterol, reference compound] | > 30 | > 30 |  |  | > 30 | did not show apparent reductions in viral RNA | virus-induced CPE [4]: but not cholesterol, reduced the SARS-CoV-2-induced CPE
CS(=O)(=O)c1ccc(C(=O)Nc2ccc(Cl)c(-c3ccccn3)c2)c(Cl)c1 [GDC0449, reference compound] |  |  |  |  |  |  | production of viral RNA with signaling pathway inhibitors ([1]; 24 h post-inoculation): did not decrease the viral RNA levels; also recorded: lack of antiviral activity
CCCCCC[C@](C)(O)[C@H]1CC[C@H]2[C@@H]3C[C@H](O)[C@H]4C[C@@H](O)CC[C@]4(C)[C@H]3CC[C@@]21C [Oxy133, (3S,5S,6S,8R,9S,10R,13S,14S,17S)-17-((S)-2-hydroxyoctan-2-yl)-10,13-dimethyl hexadecahydro-1H-cyclopentalalphenanthrene-3,6-diol] |  |  |  |  | > 15 | did not show antiviral activity up to 15 μM | IC50 [1, 12]: > 15 µM; IC90 [1, 13]: > 15 µM; virus-induced CPE [4]: blocked when treated with Oxy210 but not Oxy133; SARS-CoV-2 propagation / spread of infection (viral N protein, immunofluorescence) [5]: blocked when treated with Oxy210 but not Oxy133; viral RNA, compound present during the whole life cycle ([3]; 24 h): but not the negative control, Oxy133, clearly reduced viral RNA levels; viral RNA, compound present post-entry ([3]; added 2 h post-inoculation for 21 h): but not the negative control, Oxy133, clearly reduced viral RNA levels
C[C@]12CC[C@H](O)C[C@@H]1CC[C@@H]1[C@@H]2CC[C@@]2(C)[C@H]1CC[C@@H]2[C@](C)(O)CCc1ccc(F)cc1 [Oxy186, (3S,5S,8R,9S,10S,13S,14S,17S)-17-((R)-4-(4-fluorophenyl)-2-hydroxybutan-2-yl)-10,13-dimethylhexadecahydro-1H-cyclopenta[a]phenanthren-3-ol] | > 15 | 7.4 |  |  | > 15 | reduced viral RNA level in a dose-dependent manner | maximum reduction in viral RNA as compared to control ([1]; at 12 μM): 83%; SARS-CoV-2-induced cytopathic effect ([4]; oxy8 7.5 uM, oxy16 20 uM, oxy186 20 uM, oxy210 10 uM, 48 h, VeroE6/TMPRSS2): protected cells from cytopathic effect; cytotoxicity / cell viability ([2]; MTT assay, VeroE6/TMPRSS2 cells): No significant cytotoxicity
CC(C)CCC[C@@H](C)[C@H]1CC[C@H]2[C@@H]3CC=C4[C@@H](O)[C@@H](O)CC[C@]4(C)[C@H]3CC[C@]12C [Oxy 4-beta-OHC, 4beta-hydroxysterol, reference compound] |  |  |  |  | > 30 | did not show apparent reductions in viral RNA | IC50 [1, 12]: > 30 µM; IC90 [1, 13]: > 30 µM
CC(C)CCC[C@@H](C)[C@H]1CC[C@H]2[C@@H]3C(=O)C=C4C[C@@H](O)CC[C@]4(C)[C@H]3CC[C@]12C [Oxy 7-KC, 7-ketocholesterol, reference compound] | > 30 | 14.5 | modest anti-SARS-CoV-2 activities | substantially inhibited SARS-CoV-2 propagation | > 30 |  | virus-induced CPE [4]: reduced the SARS-CoV-2-induced CPE; SARS-CoV-2-induced cytopathic effect (CPE) ([4]; 48 h, VeroE6/TMPRSS2): inhibited SARS-CoV-2-induced cytopathic effect; SARS-CoV-2 propagation / spread of infection (viral N protein, immunofluorescence) [5]: reduced
C[C@@H](CO)CCC[C@@H](C)[C@H]1CC[C@H]2[C@@H]3CC=C4C[C@@H](O)CC[C@]4(C)[C@H]3CC[C@]12C [Oxy 27-OHC, 27-hydroxycholesterol, reference compound] | > 30 | 3.5 | modest anti-SARS-CoV-2 activities | substantially inhibited SARS-CoV-2 propagation | > 30 |  | SARS-CoV-2-induced cytopathic effect (CPE) ([4]; 48 h, VeroE6/TMPRSS2): inhibited SARS-CoV-2-induced cytopathic effect
CCC(CC)COC(=O)[C@H](C)N[P@](=O)(OC[C@H]1O[C@@](C#N)(c2ccc3c(N)ncnn23)[C@H](O)[C@@H]1O)Oc1ccccc1 [RDV, remdesivir, reference compound] | 2.5 | 1.5 |  |  |  |  | IC50 ([1]; Severe acute respiratory syndrome coronavirus 2, Vero C1008, read-out: IC50 (VeroE6)): 1.5 µM; IC90 ([1]; Severe acute respiratory syndrome coronavirus 2, Vero C1008, read-out: IC90 (VeroE6), SARS-CoV-2, VeroE6): 1.5 µM; IC50 ([6]; read-out: IC50 (Calu-3)): 80 nM; IC90 ([6]; read-out: IC90 (Calu-3)): 160 nM; CC50 ([2]; read-out: CC50 (VeroE6), VeroE6): > 10 µM; CC50 [7]: > 10 µM; CC50 [8]: > 10 µM
NC(=O)c1ccc(-c2nc(-c3ccc4c(c3)OCO4)c(-c3ccccn3)[nH]2)cc1 [SB431542, reference compound] |  |  |  |  |  |  | production of viral RNA with signaling pathway inhibitors ([1]; 24 h post-inoculation): did not significantly inhibit the production of viral RNA; also recorded: lack of antiviral activity

Source: US20230364111A1 (priority 2020, published 2023)
